Experimental data as given in patent US6303761A, “Triaminepentaacetic acid compound and paramagnetic metal complex prepared from using the compound as ligand” (Department of Health The Executive Yuan, Republic of China, priority 1999, dated 2001).
Several values for one entry are separate records, joined by “and”; a condition that tells them apart may be missing. Equal entries are not always repeated.

Experiments:
[1] = type: physicochemical; conditions: pH 7.4
liver = assay: MR imaging, liver enhancement, healthy rat; type: in vivo; conditions: 0.1 mmol/kg
Procedure: (§1) Sodium pentobarbital was injected into the tail veins of […] rats (which have a healthy liver or tumorous liver) in a dosage of 40-50 mg/kg. The rats were placed on the head coil of an 1.5 T magnetic resonance imaging instrument. The T1-weighted (TR/Te, 15/6.1 msec) image was obtained by turbo field echo with the number of signal average. The field of view (FOV), the cross-sectional thickness, and the image matrix were 22 cm, 4 mm, and 128×256 respectively.
(§2) Before injecting the contrast agent, a set of T1-weighted baseline images were taken. In the first five minutes, the images were taken at a very short time interval in order to evaluate the dynamic enhancement condition. Afterwards, the images were taken every 10, 20, 30, 40, 50, and 60 minutes in order to observe the continuous enhancement effect.
(§3) By means of the computer software contained in the MRI instrument, the region of interest (ROI) can be determined by the operator. The signal intensities (SI) of liver, phantom, and kidney were measured. The enhancement percentage of an organ (liver or kidney) and the enhancement percentage of liver relative to kidney were calculated by the following equations. The statistical method used was Wilcoxon Signed Rank Test. [formula] [formula]

kidney = assay: MR imaging, kidney enhancement, healthy rat; type: in vivo; conditions: 0.1 mmol/kg
Procedure: as §1, §2, §3

[2] = in vivo; cited from earlier work
[3] = Relaxivity R1 and its pH dependence

O=C([O-])CN(CCN(CC(=O)[O-])CC(=O)[O-])CCN(CC(=O)[O-])CC(=O)[O-].[Gd+3] [[Gd(DTPA)]^2-]
modified selectivity constant log K sel' [1]: 7.07 and 7.04
time to maximum liver enhancement (liver): ≤ 1 min
liver enhancement after 30 minutes (liver; 30 minutes): 24±7%
maximum liver enhancement (liver; within 1 minute): 57±9%
time to maximum kidney enhancement (kidney): 1 min
kidney enhancement at 30 minutes (kidney; 30 minutes): 109±14%
log K [GdL]/[Gd][L] (25.0 ± 0.1° C., aqueous Me4 NNO3, I = 0.10 mol dm^-3): 22.46
conditional stability constant (log Kcond) (pH 4): 11.25
stability constant larger than that of [Gd(DTPA-BMA)] by (pH 7.4): 3.2
stability constant under physiological conditions (pH 7.4) (pH 7.4): 22.46
stability constant (log KML) larger than that of [Gd(DTPA-BMA)] by (pH 11): 5.5
LD50 [2]: 5.6 mmol/kg
Relaxivity R1 ([3]; pH 7.5 ± 0.1): 3.71 dm^3 mmol^-1 s^-1 and 3.71 ± 0.05 dm^3 mmol^-1 s^-1
Relaxivity R1 (conclusion) ([3]; pH not given): 3.70 dm^3 mmol^-1 s^-1
